Measurements from patent publication US9951026B2, “Heterocyclic vinyl autotaxin inhibitor compounds” (PharmAkea, Inc., priority 2013, dated 2018).

molecular target: human autotaxin (Homo sapiens (Human), UniProt Q13822); test: Human Autotaxin Assay; type: biochemical; conditions: not given
Experimental: ATX activity is assayed in concentrated conditioned media from Hep3B human hepatocellular carcinoma cells by measuring the amount of choline released from the substrate, lysophosphatidylcholine (LPC) as it is cleaved to LPA. Conditioned media is collected from confluent Hep3B cells and concentrated 20-fold using Centriprep-30 filter devices (Millipore). […] 100 μl of a color mix containing 4.5 mM 4-aminoantipyrine, 2.7 mM N-ethyl-N-(2-hydroxy-3-sulfopropyl)-m-toluidine, 21 units/ml horseradish peroxidase and 3 units/ml choline oxidase in 50 mM Tris, pH 8, 4.5 mM MgCl2 is added and the incubation continued for 15 minutes at room temperature before reading the absorbance at 555 nm.

| Structure (SMILES) | IC50 [nM] |
| --- | --- |
| N#C/C(=C\c1cn(Cc2ccc(F)cc2)c2nc(Cl)ccc12)c1ccc(C(=O)O)cc1 [Compound 3-3, (Z)-4-(2-(6-chloro-1-(4-fluorobenzyl)-1H-pyrrolo[2,3-b]pyridin-3-yl)-1-cyanovinyl)benzoic acid] | 500 to 10000 |

same assay, conditions: ATX in concentrated conditioned media from Hep3B cells; choline released from LPC substrate; read-out: IC50

| Structure (SMILES) | IC50 [nM] |
| --- | --- |
| Cn1ccc(Cn2nc(/C=C(\C#N)c3ccc(C(=O)O)cc3)c3ccc(Cl)cc32)n1 [Compound 1-5, (Z)-4-(2-(6-chloro-1-((1-methyl-1H-pyrazol-3-yl)methyl)-1H-indazol-3-yl)-1-cyanovinyl)benzoic acid] | > 10000 |
| N#C/C(=C\c1nn(Cc2cc(C(F)(F)F)cc(C(F)(F)F)c2)c2cc(Cl)ccc12)c1ccc(C(=O)O)cc1 [Compound 1-4, (Z)-4-(2-(1-(3,5-bis(trifluoromethyl)benzyl)-6-chloro-1H-indazol-3-yl)-1-cyanovinyl)benzoic acid] | 500 to 10000 |
| N#C/C(=C\c1nn(Cc2ccc(Cl)nc2)c2cc(Cl)ccc12)c1ccc(C(=O)O)cc1 [Compound 1-6, (Z)-4-(2-(6-chloro-1-((6-chloropyridin-3-yl)methyl)-1H-indazol-3-yl)-1-cyanovinyl)benzoic acid] | < 500 |
| CCCn1cc(-n2c(C)c(/C=C(\C#N)c3ccc(C(=O)O)cc3)c3ccsc32)cn1 [Compound 5-1, (Z)-4-(1-cyano-2-(5-methyl-6-(1-propyl-1H-pyrazol-4-yl)-6H-thieno[2,3-b]pyrrol-4-yl)vinyl)benzoic acid] | > 10000 |
| COc1ccc(Cn2cc(/C=C(\C#N)c3ccc(C(=O)O)cc3)c3ccc(Cl)nc32)cn1 [Compound 3-4, (Z)-4-(2-(6-chloro-1-((6-methoxypyridin-3-yl)methyl)-1H-pyrrolo[2,3-b]pyridin-3-yl)-1-cyanovinyl)benzoic acid] | < 500 |
| COc1ccc(Cn2nc(/C=C(\C#N)c3ccc(C(=O)O)cc3)c3ccc(Cl)cc32)cn1 [Compound 1-7, (Z)-4-(2-(6-chloro-1-((6-methoxypyridin-3-yl)methyl)-1H-indazol-3-yl)-1-cyanovinyl)benzoic acid] | < 500 |
| COc1ccc(Cn2cc(/C=C(\C#N)c3ccc(C(=O)O)cc3)c3cccnc32)cn1 [Compound 3-2, (Z)-4-(1-cyano-2-(1-((6-methoxypyridin-3-yl)methyl)-1H-pyrrolo[2,3-b]pyridin-3-yl)vinyl)benzoic acid] | 500 to 10000 |
| N#C/C(=C\c1cn(Cc2ccc(F)cc2)c2ncccc12)c1ccc(C(=O)O)cc1 [Compound 3-1, (Z)-4-(1-cyano-2-(1-(4-fluorobenzyl)-1H-pyrrolo[2,3-b]pyridin-3-yl)vinyl)benzoic acid] | < 500 |
| N#C/C(=C\c1nn(Cc2cc(Cl)cc(Cl)c2)c2cc(Cl)ccc12)c1ccc(C(=O)O)cc1 [Compound 1-3] | 500 to 10000 |
| O=C(O)c1ccc(/C=C/c2nn(Cc3ccc(F)cc3)c3cc(Cl)ccc23)cc1 [Compound 1-8, (E)-4-(2-(6-chloro-1-(4-fluorobenzyl)-1H-indazol-3-yl)vinyl)benzoic acid] | 500 to 10000 |
| N#C/C(=C\c1nn(Cc2ccc(F)cc2)c2cc(Cl)ccc12)c1ccc(C(=O)O)cc1 [Compound 1-1, (Z)-4-(2-(6-chloro-1-(4-fluorobenzyl)-1H-indazol-3-yl)-1-cyanovinyl)benzoic acid] | < 500 |
| N#C/C(=C\c1nn(Cc2ccccc2)c2cc(Cl)ccc12)c1ccc(C(=O)O)cc1 [Compound 1-2, (Z)-4-(2-(1-benzyl-6-chloro-1H-indazol-3-yl)-1-cyanovinyl)benzoic acid] | < 500 |
